Reference: paper PMC10986598, “Investigating inhibitors of 1-deoxy-D-xylulose 5-phosphate synthase in a mouse model of UTI” (Microbiology Spectrum, 2024)
Values after ≈ are worked out from the molar mass of the structure shown. “Also recorded” adds a separate entry of the source.

What was measured:
FVB mice = experiment: Acute toxicity dose-escalation study in mice; assay type: in vivo, mouse; conditions: n = 2
Procedure: Six-week-old female FVB mice were administered BAP by intraperitoneal (IP) injection at doses of 1, 3, 10, 30, 100, and 300 mg/kg. The mice were observed every hour for 6 h post administration for signs of overt toxicity or mortality, or for symptoms related to pain/distress (ruffled fur, discharge from the eyes, dehydration, hunched posture, convulsions, lethargy, reluctance to move, uncoordinated movements, hypothermia, pale ears/feet, labored respiration, and/or cyanosis). Following initial observations, 6 h post administration, mice were then observed daily for signs of toxicity for 18 days. Mice that were administered the highest dose of BAP tested (300 mg/kg) were weighed at days 0, 1, 2, 5, 6, 7, 13, and 18.

[1] = In vitro stability in mouse liver microsomes; assay type: in vitro ADME
Procedure: Figure S1. Percent BAP or pro-hpAP remaining after incubation in mouse liver microsomes (+/-NADPH) (a), mouse plasma (b), or mouse liver homogenates (c). Data shown as bar graphs in Figure 4.

[2] = In vitro stability in mouse liver homogenate; assay type: in vitro ADME; conditions: mouse liver homogenate (10%, wt/vol), 10 µM
Procedure: (§1) In vitro stability studies were conducted using our previously published methods naive CD1 mouse plasma or liver homogenate. For liver homogenate stability study, washed mouse liver was diluted 10-fold in 0.1 M potassium phosphate buffer and homogenized using probe sonication. Crude homogenate was then aliquoted to 1 mL, and the homogenate was spiked with 10 µM compound. The plasma stability of the compounds was determined by spiking (10 µM) in 1 mL of plasma and incubating in an orbital shaker at 37°C. All the stability studies were conducted at predetermined times (0, 30, and 60 min), where 100 µL aliquots of the mixture in triplicate were removed and the reaction was quenched by the addition of three times the volume of ice-cold acetonitrile spiked with the internal standard (losartan: 0.5 µM). The samples were vortex-mixed for 30 s and centrifuged at 10,000g for 10 min at 4°C. An amount of 50 µL of the supernatant was diluted with 50 µL of water and transferred to a 250 µL polypropylene vial sealed with a Teflon cap. Compound disappearance was monitored over time using liquid chromatography and tandem mass spectrometry (LC–MS/MS). Paired t-tests were used to determine statistical significance between 0 and 60 min time points.

DXPS = tested on: DXPS; design: method as in PMID 23326631; conditions: over other ThDP-dependent enzymes; cited from earlier work
[3] = In vitro stability in mouse plasma; assay type: in vitro ADME
Procedure: as §1

UPEC (CFT073) [4] = tested on: UPEC (CFT073); design: method as in PMID 37107054; conditions: cited from earlier work
UPEC (CFT073) [5] = experiment: Antimicrobial susceptibility of UPEC (CFT073) grown in urine; assay type: cell-based, uropathogenic Escherichia coli
Procedure: Pooled human urine was filter-sterilized prior to use. Solid urine agar plates were prepared by supplementing cooled 1.5% (wt/vol) agar with filter-sterilized urine in a 4:1 ratio. OD600 measurements were performed on a Beckman DU800 UV/Visible spectrophotometer (Brea, CA, USA). MIC determination data were collected from bacteria in 96-well plates (Nunc Edge 96-Well, Non-Treated, Flat-Bottom Microplate) incubated and read on a Biotek Epoch 2 microplate reader. Uropathogenic E. coli strain CFT073 (ATCC: BAA-2503) was obtained from the lab of Rodney Welch ([58]). All microbial manipulation of pathogenic bacteria was conducted in a certified biosafety level 2 laboratory following all associated safety protocols. A hand-held tissue homogenizer (purchased from IKA, T10 basic S001, 3737001) was used to homogenize mouse bladders for bacterial enumeration.
UPEC (CFT073) cells from frozen glycerol stocks were streaked onto urine agar plates and grown for 48 h at 37°C. Three to five isolated colonies were inoculated into filter-sterilized urine supplemented with FeSO4 (20 µM), and the cultures were grown overnight with shaking at 37°C. The saturated cultures were subcultured (1:50) in fresh urine supplemented with FeSO4 (20 µM) and grown to exponential phase (OD600 ~ 0.25). Cultures at exponential phase were diluted 1:1,000 into fresh urine supplemented with FeSO4 (20 µM) to yield the experimental inoculum which was mixed 1:1 with urine containing pro-hpAP at 2 × the desired final concentration (0–10 µM). The final concentration of bacteria in each well was ~10^5 CFU/mL in a volume of 200 µL. Colony counts of the experimental inoculum were independently verified by dilution and enumeration on LB agar, grown for 16 h at 37°C, to confirm consistency between experiments. The 96-well plates were incubated at 37°C for 16 h with intermittent shaking. Fractional growth of cells treated with pro-hpAP was determined at 8 h relative to the no drug control. MIC determination was performed in biological triplicate.

Row | Compound | body weight (FVB mice; single IP dose 300 mg/kg, weighed for 18 days, 300 mg/kg) | overt toxicity or altered behavior (FVB mice; single IP dose, escalating up to 300 mg/kg, observed 18 days) | % remaining in liver microsomes ([1]; at 1 h) [%] | % remaining in liver homogenate ([2]; at 1 h) [%] | selectivity for DXPS (DXPS) | % remaining in plasma ([3]; 10 µM, 37°C, at 1 h) [%] | MIC (growth suppressed >90%) (UPEC (CFT073) [4]; UPEC CFT073 in urine) [µM] | reduction in UPEC growth (UPEC (CFT073) [4]; in urine, at 156 µM BAP) | remaining at 1 h [1] [%] | prodrug remaining in liver homogenate ([2]; 30 min incubation) | MIC (UPEC (CFT073) [5]; Escherichia coli, UPEC CFT073 in urine, read-out: MIC (growth suppressed >90%)) [µM] | reduction in fractional growth (UPEC (CFT073) [5]; UPEC CFT073 in urine, at 630 nM pro-hpAP, 8 h) [%] | higher potency than BAP (MIC in urine) (UPEC (CFT073) [5]; UPEC in urine, relative to BAP) [fold] | remaining at 1 h, 10 µM ([3]; CD1, 37°C) [%]
1 | CCCCOP(=O)(O)C(C)=O [BAP, butyl acetylphosphonate] | weight was maintained throughout the observation period; also recorded: no symptoms of distress or change in weight | No overt toxicity or altered behavior was observed; also recorded: no symptoms of distress | 94 | 22 | selective for DXPS over other ThDP-dependent enzymes | 79 | 1250 (≈ 225 µg/mL) | ~ 80% |  |  |  |  |  | 
2 | C#CCCOP(=O)(O)C(=C)NC(=O)C(CC(C)C)NC(=O)CN (centres unmarked) [pro-hpAP] |  |  |  |  |  |  |  |  | 90 | no prodrug remaining | 5 (≈ 1.73 µg/mL) | > 70 | 250 | 95
